Source: patent publication US9415034B2, “Inhibitors and enhancers of uridine diphosphate-glucuronosyltransferase 2B (UGT2B)” (NATIONAL DEFENSE MEDICAL CENTER, priority 2005, dated 2016)

Test system: UGT2B
Test: Measurement of the inhibition of UGT2B activity in vitro (metabolism of nalbuphine in liver microsome, HPLC)
Procedure: In the following experiment, 27 different kinds of CHEs and 10 different excipients were used as UGT2B inhibitor in this invention. These CHEs are pure compounds available commercially, and were purchased from Sigma Chemical Co., Nacalai Tesque (Kyoto, Japan) and Indofine Chemical Co., Inc. (Somerville, N.J.). These UGT2B inhibitors are dissolved in alcohol at the concentration of 1, 10, 100 μM for the following experiment.
These excipients are dissolved in water and make up to 0.5%, 5%, 50% (wt %, w/v) for the following experiment. (Note: BRIJ is a registered trademark of ICI Americas, Inc.; Pluronic is a registered trademark of BASF Corporation.)
The Sprague-Dawley male rats, weighted 300-400 g are used as model animals in these experiments. The microsome is prepared as follows: • i. Sacrifice a rat after 12-16 hours fasting, take its liver; wipe dry the liver and weigh it. • ii. Add 300% (by volume) of cold 0.3M sucrose solution, and homogenize the liver. • iii. Centrifuge the homogenized liver suspension at 9000×g speed (KS-800, Kubota, made in Japan) for 10 min at 4° C. Collect the supernatant. • iv. Centrifuge the supernatant at 105,000×g speed (L8-60M, Beckman, made in USA) for 60 min at 4° C. • v. Remove the supernatant, add 0.3M sucrose (of the same volume) and repeat the homogenization. The homogenized liver suspension is the microsome. Store the microsome at −70° C.
Thaw the microsome before use. Add 5 μl/ml BRIJ®35 (Fisher et al. 2000, Drug Metabolism & Disposition. 28(5):560-6) into microsome by a ratio of microsome:BRIJ®35=8:1 (v/v).
The protein amount is determined as follows: • i. Take 0.1 ml microsome and dilute to 5 ml 0.85% NaCl (50-fold dilution, v/v). Take 0.2 ml of the diluted microsome and place it in a capped test tube (triple experiments). Separately, replacing microsome with 0.2 ml NaCl as the control. • ii. Add 2.2 ml Biuret regent (SIGMA, 690-A) into each test tube, mix well and store at room temperature for 10 min. • iii. Add 0.1 ml folin regent (SIGMA, 690-A), mix immediately, and store at room temperature for 30 min. Measure the absorbance at 550 nm wave length within the 30 min. Measure the concentration of protein in microsome based on the standard curve generated by various bovine albumin concentration and absorbance. 4. The Measurement of the Inhibition of UGT2B Activity in vitro • i. […] Mix solution (A) and 17 μl solution (B) thoroughly, place in a 37° C. water bath and shake at 125 rpm for 60 min. • iii. Add 1 ml ACN to interrupt the reaction. • iv. Centrifuge at 130,000×g speed at 4° C. for 5 min, and • v. […] 5.
Set the Ultra-violet detector's (SPD-10A, Shimadzu, Kyoto, made in Japan) wave length to 210 nm.
Those CHEs are commercially available pure compounds, acquired from Sigma Chemical Co., Nacalai Tesque (Kyoto, Japan) and […] (Somerville, N.J.). Their categories, names, sources, and chemical compositions are described in Table 5.

[1] = male, Sprague-Dawley, rat, % Inhibition (Mean ± SD)
[2] = male, Sprague-Dawley, rat, inhibition rate on the metabolism of nalbuphine in microsome
[3] = Table 2, inhibitor 8.5 μM, metabolism of nalbuphine in rat liver microsome
[4] = Table 2, inhibitor 85 μM, metabolism of nalbuphine in rat liver microsome
[5] = Table 2, inhibitor 850 μM, metabolism of nalbuphine in rat liver microsome
[6] = Table 6, enhancer 8.5 μM, negative = enhancement
[7] = Table 6, enhancer 85 μM, negative = enhancement
[8] = Table 6, enhancer 850 μM, negative = enhancement

Compound	inhibition at 60 min, 8.5 µM [1]	inhibition at 60 min, 85 µM [1]	inhibition at 60 min, 850 µM [1]	inhibition at 60 min, 8.5 μM [1]	inhibition at 60 min, 85 μM [1]	inhibition at 60 min, 850 μM [1]	other results
O=c1c(-c2ccc(O)cc2)coc2cc(O)cc(O)c12 [genistein, Genistein]							inhibition at 60 min, 8.5 µM (male, Sprague-Dawley, rat): 15.6 ± 6.05%; inhibition at 60 min, 8.5 μM (male, Sprague-Dawley, rat): 15.6 ± 6.05%; inhibition at 60 min, 85 µM (male, Sprague-Dawley, rat): 5.73 ± 6.41%; inhibition at 60 min, 85 μM (male, Sprague-Dawley, rat): 5.73 ± 6.41%; inhibition at 60 min, 850 µM (male, Sprague-Dawley, rat): -9.2 ± 5.18%; inhibition at 60 min, 850 μM (male, Sprague-Dawley, rat): -9.2 ± 5.18%
O=C1CC(c2ccc(O)c(O)c2)Oc2cc(O)cc(O)c21 (stereo not drawn) [eriodictyol, Eriodictyol]	-1.06 ± 3.71%	-17.1 ± 2.3%	14.1 ± 2.88%	-1.06 ± 3.71%	-17.1 ± 2.3%	14.1 ± 2.88%	inhibition at 60 min [2]: ≥ 30%
CC12CCC(CC1)C(C)(C)O2 [cineole, Cineole]	-8.41 ± 18.6%	-12.1 ± 6.68%	58.9 ± 8.56%	-8.41 ± 18.6%	-12.1 ± 6.68%	58.9 ± 8.56%	
CC(C)[C@@H](C)/C=C/[C@@H](C)[C@H]1CC[C@H]2C3=CC=C4C[C@@H](O)CC[C@]4(C)[C@H]3CC[C@]12C [ergosterol, Ergosterol]							inhibition at 60 min, 8.5 μM (male, Sprague-Dawley, rat, liver microsomes, probe nalbuphine, % Inhibition (Mean ± SD), Table 6, enhancer 8.5 μM, negative = enhancement): -12.5 ± 28.9%; inhibition at 60 min, 85 μM (male, Sprague-Dawley, rat, liver microsomes, probe nalbuphine, % Inhibition (Mean ± SD), Table 6, enhancer 85 μM, negative = enhancement): -28.3 ± 20.3%; inhibition at 60 min, 850 μM (male, Sprague-Dawley, rat, liver microsomes, probe nalbuphine, % Inhibition (Mean ± SD), Table 6, enhancer 850 μM, negative = enhancement): -34.6 ± 19.9%
O=C(O)[C@H]1O[C@@H](Oc2cc3oc(-c4ccccc4)cc(=O)c3c(O)c2O)[C@H](O)[C@@H](O)[C@@H]1O [baicalin]							% Inhibition (Mean ± SD) [3]: 36.298 ± 9.403%; % Inhibition (Mean ± SD) [4]: 46.253 ± 22.923%; % Inhibition (Mean ± SD) [5]: 44.262 ± 2.879%
C[C@@H]1O[C@@H](O[C@H]2[C@H](Oc3cc(O)c4c(c3)O[C@H](c3ccc(O)cc3)CC4=O)O[C@H](CO)[C@@H](O)[C@@H]2O)[C@H](O)[C@H](O)[C@H]1O [narigin, Narigin]							% Inhibition (Mean ± SD) [6]: −124.10 ± 16.541%; % Inhibition (Mean ± SD) [7]: −80.70 ± 4.927%; % Inhibition (Mean ± SD) [8]: −98.15 ± 5.276%
O=C(O)/C=C/c1ccccc1 [trans-cinnamic acid, Trans-Cinnamic Acid]				-153 ± 24.9%	-109 ± 18.6%	-135 ± 3.9%	
O=c1c(-c2ccc(O)cc2)coc2cc(O[C@@H]3O[C@H](CO)[C@@H](O)[C@H](O)[C@H]3O)ccc12 [daidzin, Daidzin]							inhibition at 60 min, 8.5 μM (male, Sprague-Dawley, rat): -29.5 ± 22%; inhibition at 60 min, 85 μM (male, Sprague-Dawley, rat): -41.5 ± 17%; inhibition at 60 min, 850 μM (male, Sprague-Dawley, rat): -61 ± 21.1%
O=C/C=C/c1ccccc1 [trans-cinnamaldehyde, Trans- Cinnamaldehyde]	-6.97 ± 3.78%	-3.1 ± 9.46%	18.3 ± 10.3%	-6.97 ± 3.78%	-3.1 ± 9.46%	18.3 ± 10.3%	
COc1ccc(-c2coc3cc(O)ccc3c2=O)cc1 [formononetin, Formononetin]				-86.5 ± 3.49%	-31.5 ± 4.78%	-24.7 ± 4.42%	
C=C[C@H]1[C@H](O[C@@H]2O[C@H](CO)[C@@H](O)[C@H](O)[C@H]2O)OC=C2C(=O)OCC[C@]21O [swertiamarin, Swertiamarin]							% Inhibition (Mean ± SD) [3]: 28.239 ± 2.248%; % Inhibition (Mean ± SD) [4]: 27.930 ± 4.129%; % Inhibition (Mean ± SD) [5]: −2.499 ± 6.899%
O=c1cc(-c2ccc(O)c(O)c2)oc2cc(O)c([C@@H]3O[C@H](CO)[C@@H](O)[C@H](O)[C@H]3O)c(O)c12 [homoorientin, Homoorientin]							% Inhibition (Mean ± SD) [6]: −128.53 ± 27.613%; % Inhibition (Mean ± SD) [7]: −127.21 ± 28.005%; % Inhibition (Mean ± SD) [8]: −133.17 ± 26.968%
CCCCCCCCCCCCO [lauryl alcohol, Lauryl Alcohol]	14.4 ± 3.37%	19.5 ± 3.46%	6.23 ± 6.75%				

Second part, led by results:

inhibition at 60 min, 8.5 µM [1]	inhibition at 60 min, 85 µM [1]	inhibition at 60 min, 850 µM [1]	inhibition at 60 min, 8.5 μM [1]	inhibition at 60 min, 85 μM [1]	inhibition at 60 min, 850 μM [1]	Compound	other results
18.3 ± 0.793%	45.3 ± 7.84%	44.2 ± 2.28%				C=C(C)C1CC=C(C)CC1 (single isomer, unassigned; (+)) [(+)-limonene, (+)-Limonene]	inhibition at 60 min [2]: ≥ 30%
16.8 ± 1.72%	35.29 ± 0.22%	34.9 ± 7.3%				C=CC(=C)CCC=C(C)C [β-myrcene, β-Myrcene]	inhibition at 60 min [2]: ≥ 30%
			-9.38 ± 1.8%	-17.7 ± 8.51%	-29.2 ± 2.74%	O=C1C[C@@H](c2ccc(O[C@@H]3O[C@H](CO)[C@@H](O)[C@H](O)[C@H]3O)cc2)Oc2cc(O)ccc21 [liquiritin, Liquiritin]	
			-27 ± 4.51%	-77.7 ± 20.7%	-43.2 ± 18.8%	COc1cc(O)c2c(=O)cc(-c3ccc(O)cc3)oc2c1 [genkwanin]	
15.8 ± 4.42%	8.05 ± 3.02%	12.2 ± 4.08%				O=C(O)c1cc(O)c(O)c(O)c1 [gallic acid, Gallic Acid]	
			-128 ± 20.8%	-138 ± 4.62%		O=c1c(-c2ccc(O)cc2)coc2cc(O)ccc12 [daidzein, Daidzein]	inhibition at 60 min, 425 μM [1]: -138 ± 2.31%
			-142 ± 41%	-165 ± 23%	-188 ± 16.6%	C[C@H](Cc1ccc(O)c(O)c1)[C@@H](C)Cc1ccc(O)c(O)c1 [nordihydroguaiaretic acid]	inhibition at 60 min (male, Sprague-Dawley, rat, rate of inhibition (enhancement of the metabolism of nalbuphine in liver microsome)): -188%
51.7 ± 21.7%	-59.1 ± 18.9%	-124 ± 49.4%	51.7 ± 21.7%	-59.1 ± 18.9%	-124 ± 49.4%	COc1ccc(C2CC(=O)c3c(O)cc(O)cc3O2)cc1O (stereo not drawn) [hesperetin, Hesperetin]	inhibition at 60 min [2]: ≥ 30%
-26.3 ± 27.3%	17.3 ± 5.84%	2.39 ± 22.5%	-26.3 ± 27.3%	17.3 ± 5.84%	2.39 ± 22.5%	CC(=O)OCCCc1ccccc1 [3-phenylpropyl acetate, 3-Phenylpropyl Acetate]	
95.8 ± 5.46%	86 ± 16.5%	99.7 ± 15.9%				O=c1cc(-c2ccccc2)oc2ccc3ccccc3c12 [β-naphthoflavone, β- Naphthoflavone]	inhibition at 60 min [2]: ≥ 30%
			-19.5 ± 14.2%	-76 ± 27.3%	-71.1 ± 4.51%	O=c1c(O)c(-c2ccc(O)cc2)oc2cc(O)cc(O)c12 [kaempferol, Kaempferol]	
